Measurements: the supplement of paper PMC7840683
Where a name gives a salt, the structure may show the parent alone. ± gives the standard deviation of the averaged measurements.

Tested on: HepaRG
Assay: LDH release cytotoxicity, % of total lysis control; higher = more cytotoxic
Settings: 48 h
Outline: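 On collagen I-coated 96-well plates, single-lot HepaRG cells were exposed for 48 h, in duplicate, to eight-point half-log series of test chemicals beginning at 100 µM. The exposure medium was serum-free induction medium with 0.5% DMSO, and total lysis wells got 0.1% Triton X. Resorufin fluorescence from the CytoTox-ONE reaction, read on a Tecan Safire, reported LDH in 50 µL of spent medium. Percent cytotoxicity came from normalization to on-plate vehicle and total lysis controls, averaged over the duplicates.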

C[N+](C)(C)CC1CO1 (configuration not stated) [Glycidyl trimethylammonium chloride]
LDH release cytotoxicity (0.03162 µM): -0.794 ± 0.83%
LDH release cytotoxicity (0.1 µM): -0.64 ± 0.72%
LDH release cytotoxicity (0.3162278 µM): -0.926 ± 0.041%
LDH release cytotoxicity (1 µM): -1.32 ± 0.64%
LDH release cytotoxicity (3.16228 µM): -1.48 ± 0.5%
LDH release cytotoxicity (10 µM): -0.844 ± 0.16%
LDH release cytotoxicity (31.6228 µM): -0.342 ± 0.33%
LDH release cytotoxicity (100 µM): 0.366 ± 0.66%

CCCCCCC(CCCCCCCCCCC(=O)OCC(COC(C)=O)OC(C)=O)OC(C)=O (configuration not stated) [Grinstad Soft-N-Safe]
LDH release cytotoxicity (0.015811 µM): -1.88 ± 0.51%
LDH release cytotoxicity (0.05 µM): -1.59 ± 1.3%
LDH release cytotoxicity (0.158114 µM): -1.52 ± 1.4%
LDH release cytotoxicity (0.5 µM): -1.93 ± 1.6%
LDH release cytotoxicity (1.58114 µM): -2.07 ± 1.3%
LDH release cytotoxicity (5 µM): -1.64 ± 1.7%
LDH release cytotoxicity (15.8114 µM): -0.943 ± 1.3%
LDH release cytotoxicity (50 µM): 1.04 ± 1.8%

CCN(CC)C(=O)c1cc(S(=O)(=O)Cc2ccccc2)c(N2CCC(c3ccccc3)CC2)cc1N(CC)CCN(C)C [HMR1171 trifluoroacetate (1:1)]
LDH release cytotoxicity (0.01202 µM): 1.63 ± 0.27%
LDH release cytotoxicity (0.038 µM): 0.671 ± 0.26%
LDH release cytotoxicity (0.120167 µM): 0.671 ± 1.3%
LDH release cytotoxicity (0.38 µM): -0.413 ± 1.6%
LDH release cytotoxicity (1.20167 µM): -7.42 ± 1%
LDH release cytotoxicity (3.8 µM): 9.34 ± 2.8%
LDH release cytotoxicity (12.01666 µM): 1.9 ± 0.12%
LDH release cytotoxicity (38 µM): 82.5 ± 8.2%

OC12N=C(c3ccccc3)SC1Cc1cc(Cl)ccc12 (configuration not stated) [HMR1426]
LDH release cytotoxicity (0.03162 µM): 0.113 ± 0.048%
LDH release cytotoxicity (0.1 µM): -0.325 ± 2%
LDH release cytotoxicity (0.3162278 µM): 2.01 ± 0.36%
LDH release cytotoxicity (1 µM): 1.42 ± 1.4%
LDH release cytotoxicity (3.16228 µM): 3.44 ± 0.72%
LDH release cytotoxicity (10 µM): 4.43 ± 0.51%
LDH release cytotoxicity (31.6228 µM): 3.89 ± 0.3%
LDH release cytotoxicity (100 µM): 8.06 ± 0.31%

O=C(CCCN1CCC(O)(c2ccc(Cl)cc2)CC1)c1ccc(F)cc1 [Haloperidol]
LDH release cytotoxicity (0.03162 µM): -1.32 ± 0.62%
LDH release cytotoxicity (0.1 µM): -2.17 ± 0.32%
LDH release cytotoxicity (0.3162278 µM): -1.58 ± 0.27%
LDH release cytotoxicity (1 µM): -1.63 ± 0.15%
LDH release cytotoxicity (3.16228 µM): -2.03 ± 0.68%
LDH release cytotoxicity (10 µM): -1.44 ± 0.67%
LDH release cytotoxicity (31.6228 µM): 4.34 ± 1.7%
LDH release cytotoxicity (100 µM): 62.2 ± 7.4%

ClC1=C(Cl)C2(Cl)C3C4OC4C(Cl)C3C1(Cl)C2(Cl)Cl (configuration not stated) [Heptachlor epoxide B]
LDH release cytotoxicity (0.03162 µM): -4.87 ± 0.88%
LDH release cytotoxicity (0.1 µM): -4.16 ± 0.083%
LDH release cytotoxicity (0.3162278 µM): -4.44 ± 0.44%
LDH release cytotoxicity (1 µM): -3.99 ± 0.81%
LDH release cytotoxicity (3.16228 µM): -3.88 ± 0.66%
LDH release cytotoxicity (10 µM): -3.4 ± 0.55%
LDH release cytotoxicity (31.6228 µM): -3.14 ± 0.91%
LDH release cytotoxicity (100 µM): -0.787 ± 0.59%

ClC1=C(Cl)C2(Cl)C3C(Cl)C=CC3C1(Cl)C2(Cl)Cl (configuration not stated) [Heptachlor]
LDH release cytotoxicity (0.031623 µM): 0.0329 ± 0.088%
LDH release cytotoxicity (0.1 µM): -3.41 ± 1.6%
LDH release cytotoxicity (0.316228 µM): -2.78 ± 0.4%
LDH release cytotoxicity (1 µM): -2.89 ± 2.9%
LDH release cytotoxicity (3.16228 µM): -2.85 ± 1.9%
LDH release cytotoxicity (10 µM): -1.78 ± 2.6%
LDH release cytotoxicity (31.6228 µM): -1.45 ± 2.4%
LDH release cytotoxicity (100 µM): -0.326 ± 1.3%

CCCCCCC(=O)O [Heptanoic acid]
LDH release cytotoxicity (0.03162 µM): -1.47 ± 0.29%
LDH release cytotoxicity (0.1 µM): -1.55 ± 0.4%
LDH release cytotoxicity (0.3162278 µM): -1.65 ± 0.77%
LDH release cytotoxicity (1 µM): -1.97 ± 0.48%
LDH release cytotoxicity (3.16228 µM): -1.6 ± 0.66%
LDH release cytotoxicity (10 µM): -1.54 ± 0.79%
LDH release cytotoxicity (31.6228 µM): -1.75 ± 0.26%
LDH release cytotoxicity (100 µM): 0.197 ± 0.072%

ClC1=C(Cl)C(Cl)(Cl)C(Cl)=C1Cl [Hexachlorocyclopentadiene]
LDH release cytotoxicity (0.031623 µM): -1.11 ± 2.6%
LDH release cytotoxicity (0.1 µM): -0.0238 ± 0.36%
LDH release cytotoxicity (0.316228 µM): -1.49 ± 0.55%
LDH release cytotoxicity (1 µM): -1.14 ± 0.92%
LDH release cytotoxicity (3.16228 µM): -0.83 ± 0.046%
LDH release cytotoxicity (10 µM): -0.988 ± 0.15%
LDH release cytotoxicity (31.6228 µM): -0.0453 ± 0.82%
LDH release cytotoxicity (100 µM): 0.368 ± 1.3%

CCCCC(O)(Cn1cncn1)c1ccc(Cl)cc1Cl (configuration not stated) [Hexaconazole]
LDH release cytotoxicity (0.03162 µM): -0.998 ± 0.92%
LDH release cytotoxicity (0.1 µM): -0.668 ± 1.4%
LDH release cytotoxicity (0.3162278 µM): 0.00223 ± 0.062%
LDH release cytotoxicity (1 µM): -0.913 ± 0.57%
LDH release cytotoxicity (3.16228 µM): -0.0659 ± 0.044%
LDH release cytotoxicity (10 µM): 0.28 ± 0.96%
LDH release cytotoxicity (31.6228 µM): -0.401 ± 0.24%
LDH release cytotoxicity (100 µM): 10.1 ± 1.3%

CCCCCCCCCCCCCCCC [Hexadecane]
LDH release cytotoxicity (0.03162 µM): -0.113 ± 0.57%
LDH release cytotoxicity (0.1 µM): -0.43 ± 0.69%
LDH release cytotoxicity (0.3162278 µM): -1.34 ± 0.2%
LDH release cytotoxicity (1 µM): -1.31 ± 0.45%
LDH release cytotoxicity (3.16228 µM): -0.091 ± 0.79%
LDH release cytotoxicity (10 µM): -0.203 ± 0.97%
LDH release cytotoxicity (31.6228 µM): 0.166 ± 0.85%
LDH release cytotoxicity (100 µM): -0.385 ± 0.52%

O=C(NC(=O)c1c(F)cccc1F)Nc1cc(Cl)c(OC(F)(F)C(F)F)c(Cl)c1 [Hexaflumuron]
LDH release cytotoxicity (0.03162 µM): -0.197 ± 0.083%
LDH release cytotoxicity (0.1 µM): -1 ± 0.078%
LDH release cytotoxicity (0.3162278 µM): -1.85 ± 0.34%
LDH release cytotoxicity (1 µM): -1.29 ± 1.2%
LDH release cytotoxicity (3.16228 µM): -1.24 ± 0.28%
LDH release cytotoxicity (10 µM): -0.349 ± 0.16%
LDH release cytotoxicity (31.6228 µM): -0.129 ± 0.31%
LDH release cytotoxicity (100 µM): 4.86 ± 1.1%

O=C(OCCCCCCOC(=O)c1ccccc1)c1ccccc1 [Hexane-1,6-diyl dibenzoate]
LDH release cytotoxicity (0.03162 µM): -2.1 ± 1%
LDH release cytotoxicity (0.1 µM): -1.87 ± 0.28%
LDH release cytotoxicity (0.3162278 µM): -2.22 ± 0.23%
LDH release cytotoxicity (1 µM): -2.77 ± 1.1%
LDH release cytotoxicity (3.16228 µM): -2.28 ± 0.66%
LDH release cytotoxicity (10 µM): -1.66 ± 0.29%
LDH release cytotoxicity (31.6228 µM): -1.98 ± 0.81%
LDH release cytotoxicity (100 µM): -0.594 ± 0.66%

N#CCCCCC#N [Hexanedinitrile]
LDH release cytotoxicity (0.03162 µM): -0.442 ± 0.26%
LDH release cytotoxicity (0.1 µM): -0.226 ± 0.15%
LDH release cytotoxicity (0.3162278 µM): 0.0594 ± 0.38%
LDH release cytotoxicity (1 µM): -1 ± 1%
LDH release cytotoxicity (3.16228 µM): -0.445 ± 0.31%
LDH release cytotoxicity (10 µM): -0.461 ± 0.08%
LDH release cytotoxicity (31.6228 µM): -0.494 ± 0.13%
LDH release cytotoxicity (100 µM): 0.294 ± 0.37%

CC(C)CCCCCCOC(=O)CCCCC(=O)OCCCCCCC(C)C [Hexanedioic acid, diisononyl ester]
LDH release cytotoxicity (0.03162 µM): -1.22 ± 0.85%
LDH release cytotoxicity (0.1 µM): -0.123 ± 0.24%
LDH release cytotoxicity (0.3162278 µM): 0.647 ± 0.098%
LDH release cytotoxicity (1 µM): -0.997 ± 1.1%
LDH release cytotoxicity (3.16228 µM): 0.19 ± 0.33%
LDH release cytotoxicity (10 µM): 0.0398 ± 0.088%
LDH release cytotoxicity (31.6228 µM): 0.663 ± 0.4%
LDH release cytotoxicity (100 µM): 0.377 ± 0.98%

O=C(O)CCCCC(=O)O [Hexanedioic acid]
LDH release cytotoxicity (0.03162 µM): -0.567 ± 0.22%
LDH release cytotoxicity (0.1 µM): -0.838 ± 0.079%
LDH release cytotoxicity (0.3162278 µM): -1.43 ± 1.4%
LDH release cytotoxicity (1 µM): -1.17 ± 0.34%
LDH release cytotoxicity (3.16228 µM): -1.55 ± 0.028%
LDH release cytotoxicity (10 µM): -0.895 ± 0.82%
LDH release cytotoxicity (31.6228 µM): -1.25 ± 0.29%
LDH release cytotoxicity (100 µM): 0.446 ± 0.27%

CCCCCC(=O)O [Hexanoic acid]
LDH release cytotoxicity (0.03162 µM): -2.52 ± 0.086%
LDH release cytotoxicity (0.1 µM): -1.97 ± 0.41%
LDH release cytotoxicity (0.3162278 µM): -0.0407 ± 0.14%
LDH release cytotoxicity (1 µM): -1.44 ± 0.26%
LDH release cytotoxicity (3.16228 µM): -1.32 ± 0.1%
LDH release cytotoxicity (10 µM): -1.49 ± 1.2%
LDH release cytotoxicity (31.6228 µM): -0.358 ± 0.055%
LDH release cytotoxicity (100 µM): 0.23 ± 0.78%

CN(C)c1nc(=O)n(C2CCCCC2)c(=O)n1C [Hexazinone]
LDH release cytotoxicity (0.03162 µM): -1.77 ± 0.1%
LDH release cytotoxicity (0.1 µM): -1.77 ± 0.46%
LDH release cytotoxicity (0.3162278 µM): 0.416 ± 1.9%
LDH release cytotoxicity (1 µM): -2.14 ± 0.28%
LDH release cytotoxicity (3.16228 µM): -0.406 ± 1.8%
LDH release cytotoxicity (10 µM): -0.642 ± 0.23%
LDH release cytotoxicity (31.6228 µM): -1.37 ± 0.81%
LDH release cytotoxicity (100 µM): 0.813 ± 0.03%

CC1C(c2ccc(Cl)cc2)SC(=O)N1C(=O)NC1CCCCC1 (configuration not stated) [Hexythiazox]
LDH release cytotoxicity (0.03162 µM): -0.985 ± 0.63%
LDH release cytotoxicity (0.1 µM): -2.1 ± 0.29%
LDH release cytotoxicity (0.3162278 µM): -1.93 ± 0.23%
LDH release cytotoxicity (1 µM): -1.79 ± 0.32%
LDH release cytotoxicity (3.16228 µM): -1.86 ± 0.39%
LDH release cytotoxicity (10 µM): -2.05 ± 0.75%
LDH release cytotoxicity (31.6228 µM): 1.36 ± 1.8%
LDH release cytotoxicity (100 µM): 6.86 ± 1.2%
